From patent US20160354303A1, “Method, Compositions, And Kit For Modulating The Appearance Of Volume On Keratin Surfaces” (ELC MANAGEMENT LLC, priority 2014, published 2016)

System: Human subcutaneous preadipocytes
Test: Adipocyte differentiation assay: inhibition of adipogenesis, glycerol liberated from triglyceride (Zen-Bio)
Type: cell-based
Conditions: for adipogenesis: inhibition in presence of 1 uM Rosiglitazone, OD at 540 nm, glycerol liberated from triglyceride, FIGS. 2 and 3
Method: Conjugated linoleic acid and resveratrol were tested for their ability to promote the appearance of decreased volume. Cell culture, treatment, and differentiation assay was performed by Zen-Bio, RTF, NC. Human subcutaneous preadipocytes, lot number: were cultured in 96-well plates. The donor information is as follows: • Lot #: L061103 • […] • […] • B.M.I.: 25.2 Stimulation was treated in the presence of 0.1 uM Rosiglitazone Maleate. Inhibition was treated in the presence of 1.0 uM Rosiglitazone Maleate. Day 1: Plated cells and allowed cells to adhere. Day 2: Changed medium to Initiation medium containing the compounds or controls. Day 5: Changed medium to Adipocyte medium with the compounds. Day 8: Changed medium to Adipocyte medium with the compounds. Day 11: Changed medium to Adipocyte medium with the compounds. Day 13: Cells were washed with PBS and lysed with the lysis buffer. Reagent B was added to each well and the cells were incubated at 37° C. for 2 hours. Aliquots of the lysates were diluted with PBS, then Reagent A was added to each well. The optical density was read at 540 nm after 15 minutes. The reagent measures the amount of glycerol liberated from triglyceride. Data were analyzed using a one-way ANOVA and significant means were tested by Bonferroni multiple comparison test using Instat software. Cell culture, treatment, and differentiation assay was performed by Zen-Bio, RTF, NC. Human subcutaneous preadipocytes, lot number: were cultured in 96-well plates. The donor information is as follows: • Lot#: SL0029 • Gender: Female (all lots) […] ([…]) Human subcutaneous preadipocytes were cultured in 96-well plates. Day 1: Plated cells and allowed cells to adhere. Day 2: Changed medium to Differentiation medium containing the compounds or controls. (0.1 uM Rosi for stimulation or 1 uM Rosi for inhibition) Day 9: Changed medium to Adipocyte medium plus compounds. Day 12: Changed medium to Adipocyte medium plus compounds. Day 16: Cells were washed with PBS and lysed with the lysis buffer. […] The optical density was read at 540 nm after 15 minutes. […]

Molecule	human adipocyte generation (after treatment with resveratrol, FIG. 2 legend)	adipogenesis
Oc1ccc(C=Cc2cc(O)cc(O)c2)cc1 [resveratrol]	decrease in human adipocyte generation	effective in reducing adipogenesis
conjugated linoleic acid		effective in reducing adipogenesis
